Laboratory results reported in the NIST ThermoML archive (doi:10.1016/j.jct.2019.03.025).
Numbers after ± are expanded uncertainties.

Settings: Liquid, Vibrating tube method

## Cc1cccc(C)c1 [1,3-dimethylbenzene]
293.15 K, 100 kPa
  mass density: 864.2 ± 0.9 kg/m3
293.15 K, 1000 kPa
  mass density: 864.4 ± 0.9 kg/m3
293.15 K, 3000 kPa
  mass density: 865.8 ± 0.9 kg/m3
293.15 K, 5000 kPa
  mass density: 866.9 ± 0.9 kg/m3
293.15 K, 10000 kPa
  mass density: 870.5 ± 0.9 kg/m3
293.15 K, 15000 kPa
  mass density: 873.8 ± 0.9 kg/m3
293.15 K, 20000 kPa
  mass density: 877 ± 0.9 kg/m3
293.15 K, 25000 kPa
  mass density: 880.2 ± 0.9 kg/m3
293.15 K, 30000 kPa
  mass density: 883.2 ± 0.9 kg/m3
293.15 K, 35000 kPa
  mass density: 886 ± 1 kg/m3
293.15 K, 40000 kPa
  mass density: 888.7 ± 1 kg/m3
293.15 K, 50000 kPa
  mass density: 894.4 ± 1 kg/m3
293.15 K, 60000 kPa
  mass density: 899.1 ± 1 kg/m3
303.15 K, 100 kPa
  mass density: 855 ± 0.9 kg/m3
303.15 K, 1000 kPa
  mass density: 855.4 ± 0.9 kg/m3
303.15 K, 3000 kPa
  mass density: 857.5 ± 0.9 kg/m3
303.15 K, 5000 kPa
  mass density: 858.8 ± 0.9 kg/m3
303.15 K, 10000 kPa
  mass density: 862.3 ± 0.9 kg/m3
303.15 K, 15000 kPa
  mass density: 865.8 ± 0.9 kg/m3
303.15 K, 20000 kPa
  mass density: 869 ± 0.9 kg/m3
303.15 K, 25000 kPa
  mass density: 872.2 ± 0.9 kg/m3
303.15 K, 30000 kPa
  mass density: 875.3 ± 0.9 kg/m3
303.15 K, 35000 kPa
  mass density: 878.2 ± 1 kg/m3
303.15 K, 40000 kPa
  mass density: 881 ± 1 kg/m3
303.15 K, 50000 kPa
  mass density: 886.7 ± 1 kg/m3
303.15 K, 60000 kPa
  mass density: 892 ± 1 kg/m3
313.15 K, 100 kPa
  mass density: 846.7 ± 0.9 kg/m3
313.15 K, 1000 kPa
  mass density: 846.9 ± 0.9 kg/m3
313.15 K, 3000 kPa
  mass density: 848.6 ± 0.9 kg/m3
313.15 K, 5000 kPa
  mass density: 850.1 ± 0.9 kg/m3
313.15 K, 10000 kPa
  mass density: 854 ± 0.9 kg/m3
313.15 K, 15000 kPa
  mass density: 857.6 ± 0.9 kg/m3
313.15 K, 20000 kPa
  mass density: 861.1 ± 0.9 kg/m3
313.15 K, 25000 kPa
  mass density: 864.5 ± 0.9 kg/m3
313.15 K, 30000 kPa
  mass density: 867.7 ± 0.9 kg/m3
313.15 K, 35000 kPa
  mass density: 870.9 ± 0.9 kg/m3
313.15 K, 40000 kPa
  mass density: 873.8 ± 1 kg/m3
313.15 K, 50000 kPa
  mass density: 879.8 ± 1 kg/m3
313.15 K, 60000 kPa
  mass density: 885.1 ± 1 kg/m3
323.15 K, 100 kPa
  mass density: 837.7 ± 0.9 kg/m3
323.15 K, 1000 kPa
  mass density: 838.6 ± 0.9 kg/m3
323.15 K, 3000 kPa
  mass density: 840.2 ± 0.9 kg/m3
323.15 K, 5000 kPa
  mass density: 841.9 ± 0.9 kg/m3
323.15 K, 10000 kPa
  mass density: 845.9 ± 0.9 kg/m3
323.15 K, 15000 kPa
  mass density: 849.8 ± 0.9 kg/m3
323.15 K, 20000 kPa
  mass density: 853.6 ± 0.9 kg/m3
323.15 K, 25000 kPa
  mass density: 857 ± 0.9 kg/m3
323.15 K, 30000 kPa
  mass density: 860.4 ± 0.9 kg/m3
323.15 K, 35000 kPa
  mass density: 863.7 ± 0.9 kg/m3
323.15 K, 40000 kPa
  mass density: 866.9 ± 1 kg/m3
323.15 K, 50000 kPa
  mass density: 873 ± 1 kg/m3
323.15 K, 60000 kPa
  mass density: 878.8 ± 1 kg/m3
333.15 K, 100 kPa
  mass density: 829 ± 0.9 kg/m3
333.15 K, 1000 kPa
  mass density: 829.8 ± 0.9 kg/m3
333.15 K, 3000 kPa
  mass density: 831.7 ± 0.9 kg/m3
333.15 K, 5000 kPa
  mass density: 833.4 ± 0.9 kg/m3
333.15 K, 10000 kPa
  mass density: 837.6 ± 0.9 kg/m3
333.15 K, 15000 kPa
  mass density: 841.6 ± 0.9 kg/m3
333.15 K, 20000 kPa
  mass density: 845.6 ± 0.9 kg/m3
333.15 K, 25000 kPa
  mass density: 849.3 ± 0.9 kg/m3
333.15 K, 30000 kPa
  mass density: 852.8 ± 0.9 kg/m3
333.15 K, 35000 kPa
  mass density: 856.2 ± 0.9 kg/m3
333.15 K, 40000 kPa
  mass density: 859.7 ± 1 kg/m3
333.15 K, 50000 kPa
  mass density: 866 ± 1 kg/m3
333.15 K, 60000 kPa
  mass density: 871.9 ± 1 kg/m3
343.15 K, 100 kPa
  mass density: 820 ± 0.9 kg/m3
343.15 K, 1000 kPa
  mass density: 821.1 ± 0.9 kg/m3
343.15 K, 3000 kPa
  mass density: 823 ± 0.9 kg/m3
343.15 K, 5000 kPa
  mass density: 825 ± 0.9 kg/m3
343.15 K, 10000 kPa
  mass density: 829.4 ± 0.9 kg/m3
343.15 K, 15000 kPa
  mass density: 833.6 ± 0.9 kg/m3
343.15 K, 20000 kPa
  mass density: 837.9 ± 0.9 kg/m3
343.15 K, 25000 kPa
  mass density: 841.7 ± 0.9 kg/m3
343.15 K, 30000 kPa
  mass density: 845.5 ± 0.9 kg/m3
343.15 K, 35000 kPa
  mass density: 849.2 ± 0.9 kg/m3
343.15 K, 40000 kPa
  mass density: 852.5 ± 1 kg/m3
343.15 K, 50000 kPa
  mass density: 859.1 ± 1 kg/m3
343.15 K, 60000 kPa
  mass density: 865 ± 1 kg/m3
353.15 K, 100 kPa
  mass density: 811.3 ± 0.8 kg/m3
353.15 K, 1000 kPa
  mass density: 812.2 ± 0.8 kg/m3
353.15 K, 3000 kPa
  mass density: 814.3 ± 0.9 kg/m3
353.15 K, 5000 kPa
  mass density: 816.2 ± 0.9 kg/m3
353.15 K, 10000 kPa
  mass density: 821 ± 0.9 kg/m3
353.15 K, 15000 kPa
  mass density: 825.7 ± 0.9 kg/m3
353.15 K, 20000 kPa
  mass density: 829.8 ± 0.9 kg/m3
353.15 K, 25000 kPa
  mass density: 834 ± 0.9 kg/m3
353.15 K, 30000 kPa
  mass density: 838 ± 0.9 kg/m3
353.15 K, 35000 kPa
  mass density: 841.7 ± 0.9 kg/m3
353.15 K, 40000 kPa
  mass density: 845.3 ± 1 kg/m3
353.15 K, 50000 kPa
  mass density: 852.1 ± 1 kg/m3
353.15 K, 60000 kPa
  mass density: 858.5 ± 1 kg/m3
363.15 K, 100 kPa
  mass density: 802.2 ± 0.8 kg/m3
363.15 K, 1000 kPa
  mass density: 803.3 ± 0.8 kg/m3
363.15 K, 3000 kPa
  mass density: 805.5 ± 0.8 kg/m3
363.15 K, 5000 kPa
  mass density: 807.6 ± 0.8 kg/m3
363.15 K, 10000 kPa
  mass density: 812.4 ± 0.9 kg/m3
363.15 K, 15000 kPa
  mass density: 817.6 ± 0.9 kg/m3
363.15 K, 20000 kPa
  mass density: 821.8 ± 0.9 kg/m3
363.15 K, 25000 kPa
  mass density: 826 ± 0.9 kg/m3
363.15 K, 30000 kPa
  mass density: 830.2 ± 0.9 kg/m3
363.15 K, 35000 kPa
  mass density: 834.2 ± 0.9 kg/m3
363.15 K, 40000 kPa
  mass density: 838.1 ± 0.9 kg/m3
363.15 K, 50000 kPa
  mass density: 845.2 ± 1 kg/m3
363.15 K, 60000 kPa
  mass density: 852 ± 1 kg/m3
